Experimental data as given in US20050049295A1, “Process for the preparation of 5-(2-(4-(1,2-benzisothiazol-3-yl)-1piperazinyl) ethyl)-6-chloro-1, 3-dihydro-2h-indol-2-one hydrochloride (ziprasidone hydrochloride) and its intermediate” (DR. REDDY'S LABORATORIES LIMITED, priority 2003, published 2005).

How the values were obtained:
Format in all cases: physicochemical
[1] = Stability study with normal packing (without inert atmosphere), 40° C. and 75% relative humidity; settings: 40° C./75% RH
Method: Stability study with normal packing (without inert atmosphere): Initial and up to two-month stability profile with normal packing was carried out at 40° C. and 75% relative humidity conditions as follow: […]

[2] = Stability study with improved packing (inert atmosphere), 40° C. and 75% relative humidity; settings: 40° C./75% RH
Excerpt: (§1) Ziprasidone hydrochloride prepared by the present invention can be packed with a specific process to prevent from hydrating or to improve stability during the storage or transporting of ziprasidone hydrochloride products. This can be achieved by storing the active substance in inert atmosphere, which is technologically and economically simple. The active substance Ziprasidone HCl is stored in polythene bag or containers. The inert atmosphere may be made by nitrogen or argon or mixture thereof. Silica gel or desiccant in air permeable bag may be used optionally along with inert gas in the polythene bag or container.
(§2) Stability study with improved packing (inert atmosphere):
Initial and up to two-month stability profile for the hygroscopic active substance Ziprasidone HCl is shown below:
The stability studies were carried out at 40° C. and 75% relative humidity condition.

[3] = Stability study with improved packing (inert atmosphere), 25° C. and 60% relative humidity; settings: 25° C./60% RH
Excerpt: as §1, §2
The stability studies were also carried out at 25° C. and 60% relative humidity condition.

[4] = X-ray powder diffractogram of initial and two-month stability samples; settings: Cu K alpha-1 radiation
Method: X-Ray diffractograms of active substance Ziprasidone HCl (Initial and after two month sample) were recorded on Bruker Axe, DS Advance Powder X-ray Diffractometer with Cu K alpha-1 Radiation source. The characteristic X-ray diffractogram of Ziprasidone hydrochloride was found similar.

[5] = Crystal size distribution / mean particle size D[4,3] (Malvern)
Method: Ziprasidone hydrochloride (3 Kg) in formic acid (4.5 L) was heated to 60-65° C. for clear dissolution. The solution was filtered to remove any solid particles and the filtrate was cooled to 50-55° C. Ziprasidone hydrochloride (7.5 gm) as seed compound was added to the cooled filtrate. After stirred for 2 hr at 50-55° C., the resulting solution was cooled slowly to 25-35° C. over 1 to 1.5 hour. Ethyl acetate (13.5 L) was added slowly at 25-35° C. over 2 hrs. The resulting mass was stirred for 30-45 min at 25-35° C. The compound was filtered under nitrogen atmosphere. The filtered wet compound was added to acetic acid (10 L) at 25-35° C. under nitrogen atmosphere, and the resulting mixture was stirred for 30-45 min at 25-35° C. The compound was filtered under nitrogen atmosphere, washed with ethyl acetate (10 L), and then dried the compound at 60° C. under reduced pressure for 3-4 hrs and then at 110-120° C. to get the Ziprasidone hydrochloride (2.2 Kg). The product purity by HPLC was analyzed as 99.8%. The crystal size distribution as measured by Malvern was: D10<18.75 micron, D50=114.82 micron, […] and the mean particle size or D[4,3]=123.8 micron.

[6] = Example 15, crystal size distribution by Malvern

Work on `Cl.O=C1Cc2cc(CCN3CCN(c4nsc5ccccc45)CC3)c(Cl)cc2N1` [Ziprasidone hydrochloride, 5-(2-(4-(1,2-benzisothiazol-3-yl)-1-piperazinyl)ethyl)-6-chloro-1,3-dihydro-2H-indol-2-one hydrochloride] yielded a Moisture content ([1]; Initial) of 0.25% w/w, a Moisture content ([1]; One month) of 3.45% w/w and a Moisture content ([1]; Two month) of 4.83% w/w. For the same compound, the Assay ([2]; Initial) was 99.4% w/w, the Moisture content ([2]; Initial) was 0.54% w/w and the “Total Impurity” value ([2]; Initial) was 0.19% w/w. The Assay ([2]; One month) was 99.4% w/w, the Moisture content ([2]; One month) was 0.41% w/w and the “Total Impurity” value ([2]; One month) was 0.19% w/w. The Assay ([2]; Two month) was 99.7% w/w, the Moisture content ([2]; Two month) was 0.54% w/w and the “Total Impurity” value ([2]; Two month) was 0.20% w/w. For the same compound, the Assay ([3]; Initial) was 99.4% w/w, the Moisture content ([3]; Initial) was 0.54% w/w and the “Total Impurity” value ([3]; Initial) was 0.19% w/w. For the same compound, the Assay ([3]; One month) was 99.2% w/w, the Moisture content ([3]; One month) was 0.38% w/w and the “Total Impurity” value ([3]; One month) was 0.18% w/w. The Assay ([3]; Two month) was 99.3% w/w, the Moisture content ([3]; Two month) was 0.48% w/w and the “Total Impurity” value ([3]; Two month) was 0.21% w/w. The “X-ray diffractogram, initial versus after two month sample” value [4] was “similar”, the “mean particle size or D[4,3]” value ([5]; Example 12: reactive crystallization from base in formic acid with HCl in ethyl acetate) was 94.1 micron and the “mean particle size or D[4,3]” value ([5]; Example 13: formic acid solvent, ethyl acetate anti-solvent, 30° C.) was 101.1 micron. For the same compound, the “mean particle size or D[4,3]” value ([5]; Example 14: seeded cooling crystallization from formic acid) was 264.5 micron, the D10 [5, 6] was < 18.75 micron and the D50 [5, 6] was 114.82 micron. For the same compound, the D60 [5, 6] was < 236.5 micron, the “mean particle size or D[4,3]” value ([5]; Example 15: seeded, formic acid / ethyl acetate anti-solvent, acetic acid slurry) was 123.8 micron and the “mean particle size or D[4,3]” value ([5]; Example 16: reverse addition of formic acid solution into hot seeded ethyl acetate, 1.5 Kg) was 156.2 micron. The “D[4,3]” value ([5]; Example 17: reverse addition of formic acid solution into hot seeded ethyl acetate, 20 Kg) was 132.2 micron.
